Reference: US20110105430A1, “PYRROLO [2,3-C] PYRIDINE DERIVATIVES AS P38 KINEASE INHIBITING AGENTS” (priority 2008, published 2011)
pIC50: −log10 of the molar value.

Tests used:
p38α = target: T1, p38α (Homo sapiens, UniProt Q16539); assay: p38 kinase assay, p38-α with peptide substrate (Caliper LabChip); assay type: biochemical
T1 construct: purchased Millipore
Experimental: Alternatively, p38 kinase assays were performed in a reaction volume of 70 μL in a 384-well plate, at 30° for […] under the following conditions: 50 mM Hepes, pH 7.4, 10 mM MgCl2, 1 mg/ml FA Free BSA, 1 mM DTT, 10 μM ATP, 10 μM p38 peptide [Caliper Life Sciences FL-Peptide 8 (5-FAM-IPTSPITTTYFFFKKK-COOH)] and 5.7 nM p38-α (Millipore), or 14.3 nM unactivated MAPKAP kinase-2, 0.18 nM p38-α (Millipore) and 2 uM RSK peptide [Caliper Life Sciences FL-Peptide 11 (5-FAM-KKLNRTLSVA-COOH)]. Serial dilutions of compounds were added to each reaction in 700 nL DMSO. 700 nL of DMSO was added to the control wells of the reaction plate as the no inhibitor control for each inhibitor titration. The reaction was terminated by the addition of 15 μL of a 100 mM EDTA. Product formation was analyzed using the Caliper LabChip 3000. The Separation buffer contained 100 mM HEPES pH 7.5, 0.015% Brij-35, 2.5% Coating Reagent #3 (Caliper Life Sciences) and 10 mM EDTA. Calculation of the substrate product ratios are performed using the HTS Well Analyzer software provided by Caliper Life Sciences and the percent inhibition at each compound concentration is determined.

TNF-α = assay: IC50 hWB (TNF-α release assay); assay type: cell-based; details: Homo sapiens
Experimental: Blood was obtained from healthy volunteers by venipuncture using sodium heparin as an anti-coagulant. Peripheral blood mononuclear cells (PBMCs) were isolated using Lymphocyte Separation Medium (ICN) according to manufacturers specifications. Isolated PBMCs were washed 3 times with FIBSS and diluted to a density of 2×10^6 cells/mL in RPMI+5% autologous human serum. 50 μL of the serial dilutions of inhibitor were added to wells of a 96-well tissue culture plate followed by addition of 100 μL of PBMCs and then 50 μL of RPMI complete medium containing 400 ng/mL LPS. A control well of cells without compound but with LPS (maximal stimulation control) and one without compound and without LPS (background control) were included in each titration. The cells were incubated for 16 hours in a humidified incubator at 37° C., 5% CO2. Supernatants were then harvested and TNF-α levels were quantified by immunoassay using commercial reagents (R&D, Inc).

T1 sequence (Q16539 whole entry): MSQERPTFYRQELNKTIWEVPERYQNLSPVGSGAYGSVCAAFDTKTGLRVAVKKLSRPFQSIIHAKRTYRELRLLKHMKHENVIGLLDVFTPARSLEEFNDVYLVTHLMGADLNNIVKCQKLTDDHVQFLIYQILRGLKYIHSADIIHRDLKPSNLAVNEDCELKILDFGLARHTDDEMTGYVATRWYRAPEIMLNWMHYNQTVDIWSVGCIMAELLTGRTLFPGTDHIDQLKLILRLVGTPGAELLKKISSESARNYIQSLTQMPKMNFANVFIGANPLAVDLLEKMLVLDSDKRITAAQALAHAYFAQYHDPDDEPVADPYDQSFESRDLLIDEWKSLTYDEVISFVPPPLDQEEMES

pIC50 (p38α)	pIC50 (TNF-α)	SMILES
9.00	–	CNC(=O)c1ccn2cc(Cn3ccc4c(C(=O)c5c(F)cc(F)cc5F)c[nH]c4c3=O)nc2c1 [Example 25, N-methyl-2-{[7-oxo-3-(2,4,6-trifluorobenzoyl)-1,7-dihydro-6H-pyrrolo-[2,3-c]pyridin-6-yl]methyl}-imidazo[1,2-c]pyridine-7-carboxamide]
7.54	5.82	O=C(c1c(F)cncc1F)c1c[nH]c2c(=O)n(Cc3cc4ccccn4n3)ccc12 [Example 13, 3-(3,5-difluoroisonicotinoyl)-6-(pyrazolo[1,5-c]pyridin-2-ylmethyl)-1,6-dihydro-7H-pyrrolo[2,3-c]pyridin-7-one]
7.62	6.60	O=C(c1c(F)cc(F)cc1F)c1c[nH]c2c(=O)n(Cc3nc4ncc(Br)cc4[nH]3)ccc12 [Example 8, 6-[(6-bromo-3H-imidazo[4,5-b]pyridin-2-yl)methyl]-3-(2,4,6-trifluorobenzoyl)-1,6-dihydro-7H-pyrrolo[2,3-c]pyridin-7-one]
7.89	–	O=C(c1c(F)cc(F)cc1F)c1c[nH]c2c(=O)n(Cc3nc4ccncc4[nH]3)ccc12 [Example 17, 6-(3H-imidazo[4,5-c]pyridin-2-ylmethyl)-3-(2,4,6-trifluorobenzoyl)-1,6-dihydro-7H-pyrrolo[2,3-c]pyridin-7-one]
7.60	6.85	Cc1cnc2nc(Cn3ccc4c(C(=O)c5c(F)cccc5F)c[nH]c4c3=O)[nH]c2c1 [Example 12, 3-(2,6-difluorobenzoyl)-6-[(6-methyl-3H-imidazo[4,5-b]pyridin-2-yl)methyl]-1,6-dihydro-7H-pyrrolo[2,3-c]pyridin-7-one]
7.66	6.31	Cc1cc(F)c(C(=O)c2c[nH]c3c(=O)n(Cc4cc5ccccn5n4)ccc23)c(F)c1 [Example 14, 3-(2,6-difluoro-4-methylbenzoyl)-6-(pyrazolo[1,5-a]pyridin-2-ylmethyl)-1,6-dihydro-7H-pyrrolo[2,3-c]pyridin-7-one]
7.74	6.79	O=C(c1ccc(F)cc1F)c1c[nH]c2c(=O)n(Cc3cn4ccccc4n3)ccc12 [Example 20, 3-(2,4-difluorobenzoyl)-6-(imidazo[1,2-a]pyridin-2-ylmethyl)-1,6-dihydro-7H-pyrrolo[2,3-c]pyridin-7-one]
7.72	6.66	O=C(c1c(F)cc(F)cc1F)c1c[nH]c2c(=O)n(Cc3nc4ncc(C(=O)N5CCOCC5)cc4[nH]3)ccc12 [Example 16, 6-{[6-(morpholin-4-ylcarbonyl)-1H-imidazo[4,5-b]pyridin-2-yl]methyl}-3-(2,4,6-trifluorobenzoyl)-1,6-dihydro-7H-pyrrolo[2,3-c]pyridin-7-one]
7.85	7.41	Cc1cnc2nc(Cn3ccc4c(C(=O)c5c(F)cc(F)cc5F)c[nH]c4c3=O)[nH]c2c1 [Example 11, 6-[(6-methyl-3H-imidazo[4,5-b]pyridin-2-yl)methyl]-3-(2,4,6-trifluorobenzoyl)-1,6-dihydro-7 H-pyrrolo[2,3-c]pyridin-7-one]
6.97	6.30	O=c1c2[nH]cc(Cc3c(F)cc(F)cc3F)c2ccn1Cc1nc2ncccc2[nH]1 [Example 29, 6-(1H-imidazo[4,5-b]pyridin-2-ylmethyl)-3-(2,4,6-trifluorobenzyl)-1,6-dihydro-7H-pyrrolo[2,3-c]pyridin-7-one]
8.89	–	NC(=O)c1ccn2cc(Cn3ccc4c(C(=O)c5c(F)cc(F)cc5F)c[nH]c4c3=O)nc2c1 [Example 22, 2-{[7-oxo-3-(2,4,6-trifluorobenzoyl)-1,7-dihydro-6H-pyrrolo[2,3-c]pyridin-6-yl]methyl}imidazo[1,2-a]pyridine-7-carboxamide]
8.42	7.68	CN(C)C(=O)c1ccn2cc(Cn3ccc4c(C(=O)c5c(F)cc(F)cc5F)c[nH]c4c3=O)nc2c1 [Example 24, N,N-dimethyl-2-{[7-oxo-3-(2,4,6-trifluorobenzoyl)-1,7-dihydro-6H-pyrrolo[2,3-c]pyridin-6-yl]methyl}imidazo[1,2-a]pyridine-7-carboxamide]
7.64	6.89	O=C(c1c(F)cc(F)cc1F)c1c[nH]c2c(=O)n(Cc3nc4ccc(F)c(F)c4[nH]3)ccc12 [Example 3, 6-[(4,5-difluoro-1H-benzimidazol-2-yl)methyl]-3-(2,4,6-trifluorobenzoyl)-1,6-dihydro-7H-pyrrolo[2,3-c]pyridin-7-one]
7.40	5.86	O=C(c1c(F)cc(F)cc1F)c1c[nH]c2c(=O)n(Cc3nc4ccccc4o3)ccc12 [Example 10, 6-(1,3-benzoxazol-2-ylmethyl)-3-(2,4,6-trifluorobenzoyl)-1,6-dihydro-7H-pyrrolo[2,3-c]pyridin-7-one]
7.74	7.08	O=C(c1c(F)cc(F)cc1F)c1c[nH]c2c(=O)n(Cc3nc4cccnc4[nH]3)ccc12 [Example 6, 6-(3H-imidazo[4,5-b]pyridin-2-ylmethyl)-3-(2,4,6-trifluorobenzoyl)-1,6-dihydro-7H-pyrrolo[2,3-c]pyridin-7-one]
7.57	6.89	O=C(c1c(F)cc(F)cc1F)c1c[nH]c2c(=O)n(Cc3nc4cccc(F)c4[nH]3)ccc12 [Example 2, 6-[(4-fluoro-1H-benzimidazol-2-yl)methyl]-3-(2,4,6-trifluorobenzoyl)-1,6-dihydro-7H-pyrrolo[2,3-c]pyridin-7-one]
7.92	6.70	O=C(c1c(F)cc(F)cc1F)c1c[nH]c2c(=O)n(Cc3cn4ccc(C(F)(F)F)cc4n3)ccc12 [Example 18, 3-(2,4,6-trifluorobenzoyl)-6-{[(7-trifluoromethyl)imidazo[1,2-c]pyridin-2-yl]methyl}-1,6-dihydro-7H-pyrrolo[2,3-c]pyridin-7-one]
7.51	6.44	O=C(c1c(F)cc(F)cc1F)c1c[nH]c2c(=O)n(Cc3nc4cc(C(F)(F)F)cnc4[nH]3)ccc12 [Example 19, 3-(2,4,6-trifluorobenzoyl)-6-{[6-(trifluoromethyl)-3H-imidazo[4,5-b]pyridin-2-yl]methyl}-1,6-dihydro-7H-pyrrolo[2,3-c]pyridin-7-one]
8.52	–	CNC(=O)c1ccc2nc(Cn3ccc4c(C(=O)c5c(F)cc(F)cc5F)c[nH]c4c3=O)[nH]c2c1 [Example 27, N-methyl-2-{[7-oxo-3-(2,4,6-trifluorobenzoyl)-1,7-dihydro-6H-pyrrolo[2,3-c]pyridin-6-yl]methyl}-1H-benzimidazole-5-carboxamide]
6.60	–	O=c1c2[nH]cc(C(O)c3ccc(F)cc3F)c2ccn1Cc1cn2ccccc2n1 (centres unmarked) [Example 28, 3-[(2,4-difluorophenyl)(hydroxy)methyl]-6-(imidazo[1,2-a]pyridin-2-ylmethyl)-1,6-dihydro-7H-pyrrolo[2,3-c]pyridin-7-one]
7.42	5.69	O=C(c1c(F)cccc1F)c1c[nH]c2c(=O)n(Cc3nc4ncc(C(F)(F)F)cc4[nH]3)ccc12 [Example 21, 3-(2,6-difluorobenzoyl)-6-{[6-(trifluoromethyl)-3H-imidazo[4,5-b]pyridin-2-yl]methyl}-1,6-dihydro-7H-pyrrolo[2,3-c]pyridin-7-one]
8.70	–	O=C(O)c1ccn2cc(Cn3ccc4c(C(=O)c5c(F)cc(F)cc5F)c[nH]c4c3=O)nc2c1 [Example 23, 2-{[7-oxo-3-(2,4,6-trifluorobenzoyl)-1,7-dihydro-6H-pyrrolo[2,3-c]pyridin-6-yl]methyl}imidazo[1,2-a]pyridine-7-carboxylic acid]
